The source of these data is patent publication US11786519B2, “Apoptosis-inducing agents for the treatment of cancer and immune and autoimmune diseases” (AbbVie Inc., priority 2011, dated 2023).

Chain of Bcl-xL (Q07817 whole entry): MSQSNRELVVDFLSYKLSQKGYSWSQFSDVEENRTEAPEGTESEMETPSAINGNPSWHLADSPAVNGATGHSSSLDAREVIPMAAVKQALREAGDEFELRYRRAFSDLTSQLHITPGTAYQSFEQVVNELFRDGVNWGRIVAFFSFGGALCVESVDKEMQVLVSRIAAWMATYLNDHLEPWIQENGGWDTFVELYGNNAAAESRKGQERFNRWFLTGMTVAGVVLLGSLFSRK
Chain of mouse FL5.12 cells transfected with Bcl-xL (Q07817 whole entry, change not shown): as the sequence (Q07817 whole entry) above

In one test the target is mouse FL5.12 cells transfected with Bcl-xL (Homo sapiens, UniProt Q07817). Description: FL5.12 cellular assay (cell viability, CellTiter-Glo). The format is cell-based. To be noted: IL-3-depleted, 3% FBS assay media, 24 hours; read-out: FL5.12 Bcl-xL, −IL3, EC50. The text has this:
Individual determinations were the result of duplicate values.
On the technique in general: In ATP-based viability assays light output follows the ATP content of the culture.
A word on the EC50: it is the concentration at which the effect is half-maximal. As to `Cc1c(-c2ccc(N3CCc4cccc(C(=O)Nc5nc6ccccc6s5)c4C3C)nc2C(=O)O)cnn1CC12CC3CC(CC(C3)C1)C2` (stereo not drawn) [Example 43, 6-[8-(1,3-benzothiazol-2-ylcarbamoyl)-1-methyl-3,4-dihydroisoquinolin-2(1H)-yl]-3-[5-methyl-1-(tricyclo[3.3.1.1^3,7]dec-1-ylmethyl)-1H-pyrazol-4-yl]pyridine-2-carboxylic acid], the EC50 came out at 9 nM.

Take `COCCOCCOC12CC3CC(CC(Cn4ncc(-c5ccc(N6CCc7cccc(C(=O)Nc8nc9ccccc9s8)c7C6)nc5C(=O)O)c4C)(C3)C1)C2` [Example 63, 6-[8-(1,3-benzothiazol-2-ylcarbamoyl)-3,4-dihydroisoquinolin-2(1H)-yl]-3-[1-({3-[2-(2-methoxyethoxy)ethoxy]tricyclo[3.3.1.1^3,7]dec-1-yl}methyl)-5-methyl-1H-pyrazol-4-yl]pyridine-2-carboxylic acid]: the EC50 amounted to 3 nM.

The target in another test is Bcl-xL (Homo sapiens, UniProt Q07817). Description: TR-FRET binding assay, competition with F-Bak for Bcl-xL. Particulars: competition with F-Bak probe, GST-Bcl-xL. Here is the method:
Determination of the utility of compounds having Formula (I) as binders to and inhibitors of anti-apoptotic Bcl-xL proteins was performed using the Time Resolved-Fluorescence Resonance Energy Transfer (TR-FRET) Assay. Tb-anti-GST antibody was purchased from Invitrogen (Catalog No. PV4216).
The measurement of competition of compounds of the invention with F-Bak for a Bcl-2 family protein (Bcl-xL) binding site using a Time Resolved Fluorescence Resonance Energy Transfer (TR-FRET) binding assay:
Test compounds were serially diluted in DMSO starting at 50 µM (2× starting concentration; 10% DMSO) and 10 μL transferred into a 384-well plate.
The samples are then mixed on a shaker for 1 minute then incubated for an additional 2 hours at room temperature. For each assay plate, a probe/antibody and protein/antibody/probe mixture were included as a negative and a positive control, respectively. Fluorescence was measured on the ENVISION plate reader (Perkin Elmer) using a 340/35 nm excitation filter and 520/525 (F-Bak) and 495/510 nm ([…]) emission filters. Dissociation constants (Ki) were determined using Wang's equation (Wang, Z. X. An exact mathematical expression for describing competitive binding of two different ligands to a protein molecule. FEBS Lett. 1995 360:111-114). The TR-FRET assay can be performed in the presence of varying concentrations of human serum (HS) or fetal bovine serum (FBS).
(TR-FRET usually uses a lanthanide donor and a delayed reading to cut background.)
The Ki is the equilibrium dissociation constant of an inhibitor or competing ligand from its target. Low values mean higher affinity, high ones lower affinity. For the compound `Cc1c(-c2ccc(N3CCc4cccc(C(=O)Nc5nc6ccccc6s5)c4C3C)nc2C(=O)O)cnn1CC12CC3CC(CC(C3)C1)C2` (stereo not drawn) [Example 43, 6-[8-(1,3-benzothiazol-2-ylcarbamoyl)-1-methyl-3,4-dihydroisoquinolin-2(1H)-yl]-3-[5-methyl-1-(tricyclo[3.3.1.1^3,7]dec-1-ylmethyl)-1H-pyrazol-4-yl]pyridine-2-carboxylic acid], the affinity corresponds to a Ki of 0.2 nM.

In the case of `COCCOCCOC12CC3CC(CC(Cn4ncc(-c5ccc(N6CCc7cccc(C(=O)Nc8nc9ccccc9s8)c7C6)nc5C(=O)O)c4C)(C3)C1)C2` [Example 63, 6-[8-(1,3-benzothiazol-2-ylcarbamoyl)-3,4-dihydroisoquinolin-2(1H)-yl]-3-[1-({3-[2-(2-methoxyethoxy)ethoxy]tricyclo[3.3.1.1^3,7]dec-1-yl}methyl)-5-methyl-1H-pyrazol-4-yl]pyridine-2-carboxylic acid], the inhibitory constant (Ki) is < 0.1 nM.

Regarding `Cc1c(-c2ccc(N3CCc4cccc(C(=O)Nc5nc6ccccc6s5)c4C3)nc2C(=O)O)cnn1CC12CC3CC(C1)CC(S(C)(=O)=O)(C3)C2` [Example 81, 6-[8-(1,3-benzothiazol-2-ylcarbamoyl)-3,4-dihydroisoquinolin-2(1H)-yl]-3-(5-methyl-1-{[3-(methylsulfonyl)tricyclo[3.3.1.1^3,7]dec-1-yl]methyl}-1H-pyrazol-4-yl)pyridine-2-carboxylic acid], the inhibitory constant (Ki) was < 0.1 nM.

In the case of `Cc1c(-c2ccc(N3CCc4cccc(C(=O)Nc5nc6ccccc6s5)c4C3)nc2C(=O)O)nnn1CC12CC3CC(CC(C3)C1)C2` [Example 57, 6-[8-(1,3-benzothiazol-2-ylcarbamoyl)-3,4-dihydroisoquinolin-2(1H)-yl]-3-[5-methyl-1-(tricyclo[3.3.1.1^3,7]dec-1-ylmethyl)-1H-1,2,3-triazol-4-yl]pyridine-2-carboxylic acid], the Ki was < 0.1 nM.

Take `COCCC1(Cn2cc(-c3ccc(N4CCc5cccc(C(=O)Nc6nc7ccccc7s6)c5C4)nc3C(=O)O)cn2)C2CC3CC(C2)CC1C3` (stereo not drawn) [Example 56, 6-[8-(1,3-benzothiazol-2-ylcarbamoyl)-3,4-dihydroisoquinolin-2(1H)-yl]-3-(1-{[2-(2-methoxyethyl)tricyclo[3.3.1.1^3,7]dec-2-yl]methyl}-1H-pyrazol-4-yl)pyridine-2-carboxylic acid]: the Ki is < 0.1 nM.

`Cc1c(-c2ccc(N3CCc4cccc(C(=O)Nc5nc6ccccc6s5)c4C3)nc2C(=O)O)ccnc1S(=O)(=O)C12CC3CC(CC(C3)C1)C2` [Example 70, 6-[8-(1,3-benzothiazol-2-ylcarbamoyl)-3,4-dihydroisoquinolin-2(1H)-yl]-3′-methyl-2′-(tricyclo[3.3.1.1^3,7]dec-1-ylsulfonyl)-3,4′-bipyridine-2-carboxylic acid]: the Ki is < 0.1 nM.

Regarding `Cc1c(-c2ccc(N3CCc4cccc(C(=O)Nc5cn6ccncc6n5)c4C3)nc2C(=O)O)cnn1CC12CC3CC(CC(C3)C1)C2` [Example 73, 6-[8-(imidazo[1,2-a]pyrazin-2-ylcarbamoyl)-3,4-dihydroisoquinolin-2(1H)-yl]-3-[5-methyl-1-(tricyclo[3.3.1.1^3,7]dec-1-ylmethyl)-1H-pyrazol-4-yl]pyridine-2-carboxylic acid], the Ki is < 0.1 nM.

`COC12CC3(C)CC(C)(CC(Cn4ncc(-c5ccc(N6CCc7cccc(C(=O)Nc8nc9ccccc9s8)c7C6)nc5C(=O)O)c4C)(C3)C1)C2` [Example 38, 6-[8-(1,3-benzothiazol-2-ylcarbamoyl)-3,4-dihydroisoquinolin-2(1H)-yl]-3-(1-{[3-methoxy-5,7-dimethyltricyclo[3.3.1.1^3,7]dec-1-yl]methyl}-5-methyl-1H-pyrazol-4-yl)pyridine-2-carboxylic acid]: the Ki is < 0.1 nM.

`O=C(Nc1nc2ccccc2s1)c1cccc2c1CN(c1ccc(-c3cnn(CC4C5CC6CC(C5)CC4C6)c3)c(C(=O)O)n1)CC2` (stereo not drawn) [Example 10, 6-[8-(1,3-benzothiazol-2-ylcarbamoyl)-3,4-dihydroisoquinolin-2(1H)-yl]-3-[1-(tricyclo[3.3.1.1^3,7]dec-2-ylmethyl)-1H-pyrazol-4-yl]pyridine-2-carboxylic acid]: the Ki was < 0.1 nM.

With `Cc1c(OCC23CC4CC(CC(C4)C2)C3)cccc1-c1ccc(N2CCc3cccc(C(=O)Nc4nc5ccccc5s4)c3C2)nc1C(=O)O` [Example 21, 6-[8-(1,3-benzothiazol-2-ylcarbamoyl)-3,4-dihydroisoquinolin-2(1H)-yl]-3-{2-methyl-3-[tricyclo[3.3.1.1^3,7]dec-1-ylmethoxy]phenyl}pyridine-2-carboxylic acid], the affinity, expressed as Ki, was 0.6 nM. This lies in the sub-nanomolar range.

As to `COC12CC3CC(CC(Cn4c(C#N)cc(-c5ccc(N6CCc7cccc(C(=O)Nc8nc9ccccc9s8)c7C6)nc5C(=O)O)c4C)(C3)C1)C2` [Example 58, 6-[8-(1,3-benzothiazol-2-ylcarbamoyl)-3,4-dihydroisoquinolin-2(1H)-yl]-3-(5-cyano-1-{[3-methoxytricyclo[3.3.1.1^3,7]dec-1-yl]methyl}-2-methyl-1H-pyrrol-3-yl)pyridine-2-carboxylic acid], the Ki was < 0.1 nM.

For the compound `CNCCOC12CC3(C)CC(C)(CC(Cn4ncc(-c5ccc(N6CCc7cccc(C(=O)Nc8nc9ccccc9s8)c7C6)nc5C(=O)O)c4C)(C3)C1)C2` [Example 82, 6-[8-(1,3-benzothiazol-2-ylcarbamoyl)-3,4-dihydroisoquinolin-2(1H)-yl]-3-[1-({3,5-dimethyl-7-[2-(methylamino)ethoxy]tricyclo[3.3.1.1^3,7]dec-1-yl}methyl)-5-methyl-1H-pyrazol-4-yl]pyridine-2-carboxylic acid], the Ki was < 0.1 nM.

Consider `COCCOC12CC3CC(CC(Cn4cc(-c5ccc(N6CCc7cccc(C(=O)Nc8nc9ccccc9s8)c7C6)nc5C(=O)O)cn4)(C3)C1)C2` [Example 8, 6-[8-(1,3-benzothiazol-2-ylcarbamoyl)-3,4-dihydroisoquinolin-2(1H)-yl]-3-(1-{[3-(2-methoxyethoxy)tricyclo[3.3.1.1^3,7]dec-1-yl]methyl}-1H-pyrazol-4-yl)pyridine-2-carboxylic acid], for which the Ki is < 0.1 nM.

With `O=C(Nc1nc2ccccc2s1)c1cccc2c1CN(c1ccc(-c3cnn(CC45CC6CC(CC(O)(C6)C4)C5)c3)c(C(=O)O)n1)CC2` [Example 6, 6-[8-(1,3-benzothiazol-2-ylcarbamoyl)-3,4-dihydroisoquinolin-2(1H)-yl]-3-(1-{[3-hydroxytricyclo[3.3.1.1^3,7]dec-1-yl]methyl}-1H-pyrazol-4-yl)pyridine-2-carboxylic acid], the Ki is < 0.1 nM.

Turning to `O=C(Nc1nc2ccccc2s1)c1cccc2c1CN(c1ccc(-c3cnn(CC45CC6CC(C4)CC(N4CCOCC4)(C6)C5)c3)c(C(=O)O)n1)CC2` [Example 15, 6-[8-(1,3-benzothiazol-2-ylcarbamoyl)-3,4-dihydroisoquinolin-2(1H)-yl]-3-(1-{[3-(morpholin-4-yl)tricyclo[3.3.1.1^3,7]dec-1-yl]methyl}-1H-pyrazol-4-yl)pyridine-2-carboxylic acid], the Ki was < 0.1 nM.

On to `CC(C)OC12CC3CC(CC(Cn4cc(-c5ccc(N6CCc7cccc(C(=O)Nc8nc9ccccc9s8)c7C6)nc5C(=O)O)cn4)(C3)C1)C2` [Example 12, 6-[8-(1,3-benzothiazol-2-ylcarbamoyl)-3,4-dihydroisoquinolin-2(1H)-yl]-3-(1-{[3-(propan-2-yloxy)tricyclo[3.3.1.1^3,7]dec-1-yl]methyl}-1H-pyrazol-4-yl)pyridine-2-carboxylic acid], for which the Ki was < 0.1 nM.

Regarding `O=C(Nc1nc2ccccc2s1)c1cccc2c1CN(c1ccc(-c3cnn(CC45CC6CC(CC(C6)O4)C5)c3)c(C(=O)O)n1)CC2` [Example 13, 6-[8-(1,3-benzothiazol-2-ylcarbamoyl)-3,4-dihydroisoquinolin-2(1H)-yl]-3-[1-(2-oxatricyclo[3.3.1.1^3,7]dec-1-ylmethyl)-1H-pyrazol-4-yl]pyridine-2-carboxylic acid], the Ki was < 0.1 nM.

Regarding `Cc1c(-c2ccc(N3CCc4cccc(C(=O)Nc5nc6ccccc6s5)c4C3)nc2C(=O)O)cc(C#N)n1CCC12CC3CC(CC(C3)C1)C2` [Example 34, 6-[8-(1,3-benzothiazol-2-ylcarbamoyl)-3,4-dihydroisoquinolin-2(1H)-yl]-3-{5-cyano-2-methyl-1-[2-(tricyclo[3.3.1.1^3,7]dec-1-yl)ethyl]-1H-pyrrol-3-yl}pyridine-2-carboxylic acid], affinity was put at a Ki of 0.4 nM.

Consider `COC12CC3CC(CC(Cn4cc(-c5ccc(N6CCc7cccc(C(=O)Nc8nc9ccccc9s8)c7C6)nc5C(=O)O)cn4)(C3)C1)C2` [Example 7, 6-[8-(1,3-benzothiazol-2-ylcarbamoyl)-3,4-dihydroisoquinolin-2(1H)-yl]-3-(1-{[3-methoxytricyclo[3.3.1.1^3,7]dec-1-yl]methyl}-1H-pyrazol-4-yl)pyridine-2-carboxylic acid], for which the Ki is < 0.1 nM.
